The record followed here is US20110071108A1, “Beta-Cyclodextrin Derivatives as Antibacterial Agents” (Pinnacle Pharmaceuticals, Inc., priority 2005, published 2011).

Holding throughout (experiment): Bacterial panel testing, MIC by broth microdilution
Holding throughout (type): cell-based
What all share (settings): 20-24 hours growth
For orientation: Dilution methods test growth across graded concentrations, often in twofold steps.

The test system of one experiment is Staphylococcus aureus. How it is done:
(§1) One to three colonies of bacteria were picked from an Mueller-Hinton or Brain Heart infusion agar plate (depending on the bacterial strain) and transferred to 3 ml Mueller-Hinton broth or Brain Heart infusion media (depending on the bacterial strain). Bacteria were allowed to grow for 2-4 hours in an incubator at 37° C. Bacteria-inoculated media were dispersed in 0.9% saline to match McFarland standard density. 100 μl standardized inoculation was added to 20 ml media (dilution 1). 10 μl of the new dilution was added to 990 μl media and mixed (dilution 2). 10 μl of dilution 2 was spread on an agar plate and allowed to grow overnight. Colonies were then […].
(§2) Test compound was diluted to 10 μg/ml in dimethylsulfoxide. Four μl of Rifampicin antibiotic was loaded into row H, column 2.
(§3) All wells were then filled with 100 μl of inoculated media (dilution 1 from Example 1). A further 100 μl of the inoculated media was then added to column 2 and the contents are pipetted to thoroughly mix the contents. A full 100 μl was then transferred from column 2 and mixed into column 3. This process was continued from left to right until columns 2-12 were serially diluted, and the final draw from column 12 was discarded. The plates were covered with 3M sealing tape (plates containing Enterococcus faecium were sealed with Air Pore sealing tape) and allowed to grow for 20-24 hours. Cytotoxic wells (clear wells) are then scored and the potency of the compound was determined.

For the next experiment, the system named is Salmonella choleraesuis. How it is done:
as §1, §2, §3

The test system of the next experiment is Pseudomonas aeruginosa. How it is done:
as §1, §2, §3

The test system of the next experiment is Eschericia coli. How it is done:
as §1, §2, §3

The test system of another experiment is Enterococcus faecium. How it is done:
as §1, §2, §3

Consider `C[C@H](N)C(=O)NC[C@H]1O[C@@H]2O[C@H]3[C@H](O)[C@@H](O)[C@@H](O[C@H]4[C@H](O)[C@@H](O)[C@@H](O[C@H]5[C@H](O)[C@@H](O)[C@@H](O[C@H]6[C@H](O)[C@@H](O)[C@@H](O[C@H]7[C@H](O)[C@@H](O)[C@@H](O[C@H]8[C@H](O)[C@@H](O)[C@@H](O[C@H]1[C@H](O)[C@H]2O)O[C@@H]8CNC(=O)[C@H](C)N)O[C@@H]7CNC(=O)[C@H](C)N)O[C@@H]6CNC(=O)[C@H](C)N)O[C@@H]5CNC(=O)[C@H](C)N)O[C@@H]4CNC(=O)[C@H](C)N)O[C@@H]3CNC(=O)[C@H](C)N.Cl.Cl.Cl.Cl.Cl.Cl.Cl`, for which the “MIC SA” value in the experiment with Staphylococcus aureus is >200 µg/mL. The “MIC SC” value in the experiment on Salmonella choleraesuis is >200 µg/mL. Also, the “MIC PA” value against Pseudomonas aeruginosa was >200 µg/mL. Further, in the experiment on Eschericia coli, the “MIC EC” value is >200 µg/mL. Further, in the experiment with Enterococcus faecium, the “MIC EF” value is >200 µg/mL.
For the molecule `Cl.Cl.Cl.Cl.Cl.Cl.Cl.N=C(N)NCCCSC[C@H]1O[C@@H]2O[C@H]3[C@H](O)[C@@H](O)[C@@H](O[C@H]4[C@H](O)[C@@H](O)[C@@H](O[C@H]5[C@H](O)[C@@H](O)[C@@H](O[C@H]6[C@H](O)[C@@H](O)[C@@H](O[C@H]7[C@H](O)[C@@H](O)[C@@H](O[C@H]8[C@H](O)[C@@H](O)[C@@H](O[C@H]1[C@H](O)[C@H]2O)O[C@@H]8CSCCCNC(=N)N)O[C@@H]7CSCCCNC(=N)N)O[C@@H]6CSCCCNC(=N)N)O[C@@H]5CSCCCNC(=N)N)O[C@@H]4CSCCCNC(=N)N)O[C@@H]3CSCCCNC(=N)N`, in the experiment with Staphylococcus aureus, the “MIC SA” value is >200 µg/mL. In the experiment with Salmonella choleraesuis, the “MIC SC” value is >200 µg/mL. The “MIC PA” value with Pseudomonas aeruginosa was >200 µg/mL. Moreover, in the experiment with Eschericia coli, the “MIC EC” value was >200 µg/mL. In the experiment on Enterococcus faecium, the “MIC EF” value was >200 µg/mL.
Consider `Cl.Cl.Cl.Cl.Cl.Cl.Cl.N[C@@H](CC(=O)OCc1ccccc1)C(=O)NC[C@H]1O[C@@H]2O[C@H]3[C@H](O)[C@@H](O)[C@@H](O[C@H]4[C@H](O)[C@@H](O)[C@@H](O[C@H]5[C@H](O)[C@@H](O)[C@@H](O[C@H]6[C@H](O)[C@@H](O)[C@@H](O[C@H]7[C@H](O)[C@@H](O)[C@@H](O[C@H]8[C@H](O)[C@@H](O)[C@@H](O[C@H]1[C@H](O)[C@H]2O)O[C@@H]8CNC(=O)[C@@H](N)CC(=O)OCc1ccccc1)O[C@@H]7CNC(=O)[C@@H](N)CC(=O)OCc1ccccc1)O[C@@H]6CNC(=O)[C@@H](N)CC(=O)OCc1ccccc1)O[C@@H]5CNC(=O)[C@@H](N)CC(=O)OCc1ccccc1)O[C@@H]4CNC(=O)[C@@H](N)CC(=O)OCc1ccccc1)O[C@@H]3CNC(=O)[C@@H](N)CC(=O)OCc1ccccc1`, for which the “MIC SA” value with Staphylococcus aureus was >200 µg/mL. Moreover, the “MIC SC” value in the experiment with Salmonella choleraesuis was >200 µg/mL. The “MIC PA” value with Pseudomonas aeruginosa is >200 µg/mL. In addition, the “MIC EC” value in the experiment with Eschericia coli is >200 µg/mL. Besides, the “MIC EF” value in the experiment with Enterococcus faecium is >200 µg/mL.
`Cl.Cl.Cl.Cl.Cl.Cl.Cl.NCCCCCSC[C@H]1O[C@@H]2O[C@H]3[C@H](O)[C@@H](O)[C@@H](O[C@H]4[C@H](O)[C@@H](O)[C@@H](O[C@H]5[C@H](O)[C@@H](O)[C@@H](O[C@H]6[C@H](O)[C@@H](O)[C@@H](O[C@H]7[C@H](O)[C@@H](O)[C@@H](O[C@H]8[C@H](O)[C@@H](O)[C@@H](O[C@H]1[C@H](O)[C@H]2O)O[C@@H]8CSCCCCCN)O[C@@H]7CSCCCCCN)O[C@@H]6CSCCCCCN)O[C@@H]5CSCCCCCN)O[C@@H]4CSCCCCCN)O[C@@H]3CSCCCCCN`: the “MIC SA” value against Staphylococcus aureus is >200 µg/mL. For the same molecule, the “MIC SC” value in the experiment with Salmonella choleraesuis was >200 µg/mL. The “MIC PA” value against Pseudomonas aeruginosa was >200 µg/mL. Moreover, the “MIC EC” value in the experiment on Eschericia coli was >200 µg/mL. In addition, the “MIC EF” value against Enterococcus faecium was >200 µg/mL.
Turning to `O=C(C[n+]1ccccc1)NCC1OC2OC3C(CNC(=O)C[n+]4ccccc4)OC(OC4C(CNC(=O)C[n+]5ccccc5)OC(OC5C(CNC(=O)C[n+]6ccccc6)OC(OC6C(CNC(=O)C[n+]7ccccc7)OC(OC7C(CNC(=O)C[n+]8ccccc8)OC(OC8C(CNC(=O)C[n+]9ccccc9)OC(OC1C(O)C2O)C(O)C8O)C(O)C7O)C(O)C6O)C(O)C5O)C(O)C4O)C(O)C3O.[Cl-].[Cl-].[Cl-].[Cl-].[Cl-].[Cl-].[Cl-]` (stereo not drawn), in the experiment on Staphylococcus aureus, the “MIC SA” value is >200 µg/mL. Besides, the “MIC SC” value against Salmonella choleraesuis was >200 µg/mL. Besides, in the experiment with Pseudomonas aeruginosa, the “MIC PA” value was >200 µg/mL. Besides, in the experiment with Eschericia coli, the “MIC EC” value was >200 µg/mL. Also, the “MIC EF” value against Enterococcus faecium is >200 µg/mL.
With `Cl.Cl.Cl.Cl.Cl.Cl.Cl.O=C(CNCc1ccccc1)NCC1OC2OC3C(CNC(=O)CNCc4ccccc4)OC(OC4C(CNC(=O)CNCc5ccccc5)OC(OC5C(CNC(=O)CNCc6ccccc6)OC(OC6C(CNC(=O)CNCc7ccccc7)OC(OC7C(CNC(=O)CNCc8ccccc8)OC(OC8C(CNC(=O)CNCc9ccccc9)OC(OC1C(O)C2O)C(O)C8O)C(O)C7O)C(O)C6O)C(O)C5O)C(O)C4O)C(O)C3O` (stereo not drawn), the “MIC SA” value against Staphylococcus aureus is >200 µg/mL. For the same molecule, the “MIC SC” value in the experiment with Salmonella choleraesuis was >200 µg/mL. In the experiment on Pseudomonas aeruginosa, the “MIC PA” value is >200 µg/mL. Also, the “MIC EC” value in the experiment with Eschericia coli is >200 µg/mL. Also, the “MIC EF” value against Enterococcus faecium was >200 µg/mL.
With `CC(C)(C)OC(=O)NCCCC[C@H](NC(=O)[C@@H](N)CCCCNC(=O)OC(C)(C)C)C(=O)NCC1OC2OC3C(CNC(=O)[C@H](CCCCNC(=O)OC(C)(C)C)NC(=O)[C@@H](N)CCCCNC(=O)OC(C)(C)C)OC(OC4C(CNC(=O)[C@H](CCCCNC(=O)OC(C)(C)C)NC(=O)[C@@H](N)CCCCNC(=O)OC(C)(C)C)OC(OC5C(CNC(=O)[C@H](CCCCNC(=O)OC(C)(C)C)NC(=O)[C@@H](N)CCCCNC(=O)OC(C)(C)C)OC(OC6C(CNC(=O)[C@H](CCCCNC(=O)OC(C)(C)C)NC(=O)[C@@H](N)CCCCNC(=O)OC(C)(C)C)OC(OC7C(CNC(=O)[C@H](CCCCNC(=O)OC(C)(C)C)NC(=O)[C@@H](N)CCCCNC(=O)OC(C)(C)C)OC(OC8C(CNC(=O)[C@H](CCCCNC(=O)OC(C)(C)C)NC(=O)[C@@H](N)CCCCNC(=O)OC(C)(C)C)OC(OC1C(O)C2O)C(O)C8O)C(O)C7O)C(O)C6O)C(O)C5O)C(O)C4O)C(O)C3O` (stereo partly drawn), in the experiment on Staphylococcus aureus, the “MIC SA” value was >200 µg/mL. The “MIC SC” value in the experiment with Salmonella choleraesuis is >200 µg/mL. In the experiment on Pseudomonas aeruginosa, the “MIC PA” value is >200 µg/mL. Moreover, the “MIC EC” value in the experiment with Eschericia coli is >200 µg/mL. Moreover, in the experiment with Enterococcus faecium, the “MIC EF” value is >200 µg/mL.
In the case of `OC1C2OC(CNc3nc4ccccc4[nH]3)C(OC3OC(CNc4nc5ccccc5[nH]4)C(OC4OC(CNc5nc6ccccc6[nH]5)C(OC5OC(CNc6nc7ccccc7[nH]6)C(OC6OC(CNc7nc8ccccc8[nH]7)C(OC7OC(CNc8nc9ccccc9[nH]8)C(OC8OC(CNc9nc%10ccccc%10[nH]9)C(O2)C(O)C8O)C(O)C7O)C(O)C6O)C(O)C5O)C(O)C4O)C(O)C3O)C1O` (stereo not drawn), the “MIC SA” value in the experiment on Staphylococcus aureus is >200 µg/mL. Besides, in the experiment on Salmonella choleraesuis, the “MIC SC” value is >200 µg/mL. For the same molecule, in the experiment on Pseudomonas aeruginosa, the “MIC PA” value is >200 µg/mL. Besides, in the experiment with Eschericia coli, the “MIC EC” value is >200 µg/mL. Also, the “MIC EF” value in the experiment with Enterococcus faecium is >200 µg/mL.
Take `C=CCNCC1OC2OC3C(CNCC=C)OC(OC4C(CNCC=C)OC(OC5C(CNCC=C)OC(OC6C(CNCC=C)OC(OC7C(CNCC=C)OC(OC8C(CNCC=C)OC(OC1C(O)C2O)C(O)C8O)C(O)C7O)C(O)C6O)C(O)C5O)C(O)C4O)C(O)C3O` (stereo not drawn): the “MIC SA” value in the experiment with Staphylococcus aureus is >200 µg/mL. Also, the “MIC SC” value with Salmonella choleraesuis is >200 µg/mL. In the experiment on Pseudomonas aeruginosa, the “MIC PA” value was >200 µg/mL. Moreover, in the experiment on Eschericia coli, the “MIC EC” value is >200 µg/mL. In addition, the “MIC EF” value against Enterococcus faecium is >200 µg/mL.
For the molecule `Cl.Cl.Cl.Cl.Cl.Cl.Cl.N=C(N)NCCCCSCC1OC2OC3C(CSCCCCNC(=N)N)OC(OC4C(CSCCCCNC(=N)N)OC(OC5C(CSCCCCNC(=N)N)OC(OC6C(CSCCCCNC(=N)N)OC(OC7C(CSCCCCNC(=N)N)OC(OC8C(CSCCCCNC(=N)N)OC(OC1C(O)C2O)C(O)C8O)C(O)C7O)C(O)C6O)C(O)C5O)C(O)C4O)C(O)C3O` (stereo not drawn), the “MIC SA” value in the experiment with Staphylococcus aureus is >200 µg/mL. Further, the “MIC SC” value in the experiment on Salmonella choleraesuis is >200 µg/mL. Further, the “MIC PA” value in the experiment with Pseudomonas aeruginosa is >200 µg/mL. Further, the “MIC EC” value against Eschericia coli was >200 µg/mL. For the same molecule, the “MIC EF” value against Enterococcus faecium was >200 µg/mL.
`CC(C)NCC1OC2OC3C(CNC(C)C)OC(OC4C(CNC(C)C)OC(OC5C(CNC(C)C)OC(OC6C(CNC(C)C)OC(OC7C(CNC(C)C)OC(OC8C(CNC(C)C)OC(OC1C(O)C2O)C(O)C8O)C(O)C7O)C(O)C6O)C(O)C5O)C(O)C4O)C(O)C3O` (stereo not drawn): in the experiment with Staphylococcus aureus, the “MIC SA” value is >200 µg/mL. Also, the “MIC SC” value with Salmonella choleraesuis was >200 µg/mL. The “MIC PA” value against Pseudomonas aeruginosa is >200 µg/mL. For the same molecule, the “MIC EC” value against Eschericia coli was >200 µg/mL. Moreover, the “MIC EF” value against Enterococcus faecium is >200 µg/mL.
`CC(CCN)CCSCC1OC2OC3C(CSCCC(C)CCN)OC(OC4C(CSCCC(C)CCN)OC(OC5C(CSCCC(C)CCN)OC(OC6C(CSCCC(C)CCN)OC(OC7C(CSCCC(C)CCN)OC(OC8C(CSCCC(C)CCN)OC(OC1C(O)C2O)C(O)C8O)C(O)C7O)C(O)C6O)C(O)C5O)C(O)C4O)C(O)C3O.Cl.Cl.Cl.Cl.Cl.Cl.Cl` (stereo not drawn): in the experiment on Staphylococcus aureus, the “MIC SA” value was >100 µg/mL. The “MIC SC” value with Salmonella choleraesuis is >100 µg/mL. Besides, in the experiment on Pseudomonas aeruginosa, the “MIC PA” value was >100 µg/mL. Also, the “MIC EC” value in the experiment with Eschericia coli is >100 µg/mL. Also, in the experiment with Enterococcus faecium, the “MIC EF” value was >100 µg/mL.
